Source: patent US6908945B2, “Ester compound and its use” (Sumitomo Chemical Company, Limited, priority 2002, dated 2005)

How the values were obtained:
[1] = system: female common mosquitoes (Culex pipiens pallens); experiment: Knock-down test, oil solution sprayed into cubic chamber, common mosquitoes; format: in vivo; settings: 0.7 ml of 0.00625% oil solution sprayed, 70 cm cubic chamber, ten female Culex pipiens pallens, counted for 10 minutes
Text: A solution of 0.00625 part of the present compound (1R,cis-E) dissolved with 10 parts of dichloromethane was mixed with 89.99375 parts of deodorized kerosene to give a […] oil solution.
(§1) Ten female common mosquitoes (Culex pipiens pallens) were left in a cubic chamber (70 cm at side). Seven-tenths (0.7) ml of the 0.00625% oil solution of the present compound prepared above was sprayed with a spray gun at a pressure of 8.8×10^4 Pa from a small window on the side of the chamber. Then, the number of the knocked-down insects was counted at times for 10 minutes. The time for knocking down half of the tested insects was 1.3 minute.
The same test except that 3-phenoxybenzyl (1R,cis)-3-((E)-2-cyano-1-propenyl)-2,2-dimethylcyclopropanecarboxylate, which is a compound described in Indian Patent No. 152306, was used in place of the present compound was performed for reference. The KT50 value was 8.0 minutes.

Adult houseflies = experiment: Knock-down test, oil solution sprayed into cubic chamber, adult houseflies; format: in vivo; settings: 70 cm cubic chamber, 5 male and 5 female adult houseflies, counted for 10 minutes; for time for knocking down half of the tested insects (KT50): 0.7 ml of 0.00625% oil solution sprayed, two repetitions
Text: A solution of 0.025 part of the present compound prepared by the production example mentioned above dissolved with 10 parts of dichloromethane was mixed with 89.9975 parts of deodorized kerosene to give a […] oil solution.
as §1, with “Adult houseflies (5 males and 5 females)” for “Ten female common mosquitoes (Culex pipiens pallens)”, “0.025%” for “0.00625%”, “1.0” for “1.3”
A solution of 0.00625 part of the present compound prepared by the production example mentioned above dissolved with 10 parts of dichloromethane was mixed with 89.99375 parts of deodorized kerosene to give a 0.00625% oil solution.
Adult houseflies (5 males and 5 females) were left in a cubic chamber (70 cm at side). Seven-tenths (0.7) ml of the 0.00625% oil solution of the present compound prepared above was sprayed with a spray gun at a pressure of 8.8×10^4 Pa from a small window on the side of the chamber. Then, the number of the knocked-down insects was counted at times for 10 minutes (two repetitions). The time for knocking down half of the tested insects (KT50) was observed. The KT50 value was 1.1 minutes.
The same test except that 4-methoxymethy-2,3,5,6-tetrafluorobenzyl (1R,trans)-3-(2-fluoro-1-propenyl)-2,2-dimethylcyclopropanecarboxylate, which is a compound of Example 12 of WO 99/32426, was used in place of the present compound was performed for reference. The KT50 value was 5.0 minutes.

Compound	time for knocking down half of the tested insects (KT50) [1] [min]	time for knocking down half of the tested insects (KT50) (Adult houseflies) [min]	time for knocking down half of the tested insects (Adult houseflies; 0.7 ml of 0.025% oil solution sprayed) [min]
C/C(C#N)=C\[C@H]1[C@@H](C(=O)OCc2cccc(Oc3ccccc3)c2)C1(C)C (relative stereo) [3-phenoxybenzyl (1R,cis)-3-((E)-2-cyano-1-propenyl)-2,2-dimethylcyclopropanecarboxylate, reference compound]	8.0		
COCc1c(F)c(F)c(COC(=O)[C@@H]2[C@H](C=C(C)F)C2(C)C)c(F)c1F (relative stereo) [Example 12 of WO 99/32426, 4-methoxymethy-2,3,5,6-tetrafluorobenzyl (1R,trans)-3-(2-fluoro-1-propenyl)-2,2-dimethylcyclopropanecarboxylate, reference compound]		5.0	
COCc1c(F)c(F)c(COC(=O)C2C(C=C(C)C#N)C2(C)C)c(F)c1F [present compound (1R,cis-E)]	1.3		
COCc1c(F)c(F)c(COC(=O)C2C(C=C(C)C#N)C2(C)C)c(F)c1F (centres unmarked) [present compound, 4-methoxymethy-2,3,5,6-tetrafluorobenzyl 3-(2-cyano-1-propenyl)-2,2-dimethylcyclopropanecarboxylate]		1.1	1.0
